This is an account of results in patent publication US20100305140A1, “BENZIMIDAZOLE DERIVATIVES WHICH ARE TO BE USED AS ANTAGONIST FOR THE CB1-RECEPTOR” (AstraZeneca AB, priority 2006, published 2010).

Usually Ki stands for a measure of affinity in units of concentration, obtained from inhibition or displacement. By EC50 is commonly meant the concentration that produces a half-maximal response. By Emax is commonly meant the greatest response seen or fitted, relative to the assay's reference.

The target in assay [1] is T1, Human CB1 receptor (hCB1) (Homo sapiens, UniProt P21554).
T1 construct: purchased Receptor Biology
The assay can be described thus: hCB1 receptor binding (3H-CP55,940 displacement). The settings on record: human CB1 receptor membranes. Here is the method: hCB1 and hCB2 Receptor Binding
Human CB1 receptor from Receptor Biology (hCB1) or human CB2 receptor from BioSignal (hCB2) membranes are thawed at 37° C., passed 3 times through a 25-gauge blunt-end needle, diluted in the cannabinoid binding buffer (50 mM Tris, 2.5 mM EDTA, 5 mM MgCl2, and 0.5 mg/mL BSA fatty acid free, pH 7.4) and aliquots containing the appropriate amount of protein are distributed into 96-well plates. The IC50 of the compounds of the invention at hCB1 and hCB2 are evaluated from 10-point dose-response curves done with ^3H-CP55,940 at 20000 to 25000 dpm per well (0.17-0.21 nM) in a final volume of 300 μl. The total and non-specific binding are determined in the absence and presence of 0.2 μM of HU210 respectively. The plates are vortexed and incubated for 60 minutes at room temperature, filtered through Unifilters GF/B (presoaked in 0.1% polyethyleneimine) with the Tomtec or Packard harvester using 3 mL of wash buffer (50 mM Tris, 5 mM MgCl2, 0.5 mg BSA pH 7.0). The filters are dried for 1 hour at 55° C. The radioactivity (cpm) is counted in a TopCount (Packard) after adding 65 μl/well of MS-20 scintillation liquid.
Based on the above assays, the dissociation constant (Ki) for a particular compound of the invention towards a particular receptor is determined using the following equation: […]

In assay [2] the target is T1, Human CB1 receptor (hCB1). The assay can be described thus: hCB1 GTPγS binding. Format: biochemical. As to conditions: human CB1 receptor membranes, GTPγ35S; for EC50: unit inferred; for Emax: maximal stimulated binding determined with 10 μM Win 55,212-2. Here is the method: hCB1 and hCB2 GTPγS Binding
Human CB1 receptor from Receptor Biology (hCB1) or human CB2 receptor membranes (BioSignal) are thawed at 37° C., passed 3 times through a 25-gauge blunt-end needle and diluted in the GTPγS binding buffer (50 mM Hepes, 20 mM NaOH, 100 mM NaCl, 1 mM EDTA, 5 mM MgCl2, pH 7.4, 0.1% BSA). The EC50 and Emax of the compounds of the invention are evaluated from 10-point dose-response curves done in 300 μl with the appropriate amount of membrane protein and 100000-130000 dpm of GTPg^35S per well (0.11-0.14 nM). The basal and maximal stimulated binding is determined in absence and presence of 1 μM (hCB2) or 10 μM (hCB1) Win 55,212-2 respectively. The membranes are pre-incubated for 5 minutes with 56.25 μM (hCB2) or 112.5 μM (hCB1) GDP prior to distribution in plates (15 μM (hCB2) or 30 μM (hCB1) GDP final). The plates are vortexed and incubated for 60 minutes at room temperature, filtered on Unifilters GF/B (presoaked in water) with the Tomtec or Packard harvester using 3 ml of wash buffer (50 mM Tris, 5 mM MgCl2, 50 mM NaCl, pH 7.0). The filters are dried for 1 hour at 55° C. The radioactivity (cpm) is counted in a TopCount (Packard) after adding 65 μl/well of MS-20 scintillation liquid. Antagonist reversal studies are done in the same way except that (a) an agonist dose-response curve is done in the presence of a constant concentration of antagonist, or (b) an antagonist dose-response curve is done in the presence of a constant concentration of agonist.
In general terms: GTPγS is a poorly hydrolysed GTP analogue; its binding reports G protein activation.

T1 sequence (P21554 whole entry): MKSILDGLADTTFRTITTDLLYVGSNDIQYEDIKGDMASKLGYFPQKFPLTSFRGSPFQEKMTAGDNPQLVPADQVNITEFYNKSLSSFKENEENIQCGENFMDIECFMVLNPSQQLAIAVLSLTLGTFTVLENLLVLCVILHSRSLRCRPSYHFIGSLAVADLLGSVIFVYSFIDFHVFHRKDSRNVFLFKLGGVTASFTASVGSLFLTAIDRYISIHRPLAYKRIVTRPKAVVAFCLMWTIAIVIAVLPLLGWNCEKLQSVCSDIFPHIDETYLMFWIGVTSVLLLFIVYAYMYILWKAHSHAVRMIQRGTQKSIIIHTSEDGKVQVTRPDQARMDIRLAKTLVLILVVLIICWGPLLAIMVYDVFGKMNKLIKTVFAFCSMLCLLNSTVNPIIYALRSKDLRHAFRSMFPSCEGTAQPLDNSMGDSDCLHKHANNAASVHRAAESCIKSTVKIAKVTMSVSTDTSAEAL

With `CC(C)(C)c1nc2cc(C(=O)N3CCC(C(=O)NC4CC4)CC3)ccc2n1CC1CCC(F)(F)CC1`, the affinity in assay [1], expressed as Ki, was 19.2 nM. For the same compound, in assay [2], a half-maximal effect (EC50) was put at 16.7 nM and the Emax was 115%.

`CC(C)(C)c1nc2cc(C(=O)N3CCC(C(=O)NC4CC4)CC3)ccc2n1CC1CCCCC1` returned an inhibition constant Ki in assay [1] of 23.8 nM. In assay [2], this compound gave an EC50 of 37.7 nM and a maximal response (Emax) of 134%.

Turning to `Cc1cc(NC(=O)C2CCN(C(=O)c3ccc4c(c3)nc(C(C)(C)C)n4CC3CCC(F)(F)CC3)CC2)no1`, in assay [2], the response was half-maximal at 1770 nM (EC50) and the Emax worked out at 132%.
